Laboratory results: patent US11000033B2, “Ketone or oxime compound, and herbicide” (NISSAN CHEMICAL CORPORATION, priority 2014, dated 2021)

What was measured:
Type in all cases: in vivo
[1] = system: Amaranthus retroflexus; assay: Test Example 4: herbicidal effect by soil treatment (symbol N); settings: for N: Amaranthus retroflexus, herbicidal effect grade: 320 g/ha
Method in brief: (§1)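 Seeds were sown in sterilized diluvial soil, covered with about 1.5 cm of soil, and the soil surface was sprayed with a water-diluted emulsion of the compound at a predetermined rate. Plants grew in a greenhouse at 25° C. to 30° C.; effects were scored visually 3 weeks after application.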

[2] = system: Apera spica-venti; assay: Test Example 5: herbicidal effect by foliage application, plastic box (symbol L); settings: 320 g/ha, 3 weeks after application
Method in brief: (§2)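 Seeds were sown in sterilized diluvial soil, covered with about 1.5 cm of soil and grown 14 days in a greenhouse at 25° C. to 30° C. An emulsifiable formulation diluted in water to a set rate was sprayed over foliage, and injury was scored 3 weeks later.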

[3] = system: Alopecurus myosuroides; assay: Test Example 4: herbicidal effect by soil treatment (symbol J); settings: for J: Alopecurus myosuroides, herbicidal effect grade: 320 g/ha
Method in brief: as §1

[4] = system: transplanted rice plant; assay: Test Example 1: effect on crop, application before weed generation in submerged conditions (symbol a); settings: application herbicide amount 320 g/ha
Method in brief: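 Alluvial soil pots flooded to 4 cm water, sown with Echinochloa oryzacola, Scirpus juncoides and Monochoria vaginalis, then transplanted with 2.5 leaf stage rice seedlings; pre-emergence application. Greenhouse 25° C. to 30° C.; scored 0–5 by herbicidal ratio 3 weeks after application.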

[5] = system: Echinochloa crus-galli var. crus-galli; assay: Test Example 3: herbicidal effect by foliage application, Wagner pot (symbol H); settings: application herbicide amount 320 g/ha
Method in brief: (§3)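 Plants sown in submerged alluvial soil (water depth 0.1–0.5 cm) in a 25–30 °C greenhouse and grown 14 days. An emulsion of the compound diluted in water to a set herbicide amount was sprayed uniformly on foliage. Effect on each plant scored 3 weeks after application.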

[6] = system: soybean; assay: Test Example 5: effect on crop by foliage application, plastic box (symbol d); settings: 320 g/ha, 3 weeks after application
Method in brief: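 Crop and weed seeds sown in spots in sterilized diluvial soil in plastic boxes and covered with about 1.5 cm soil. Plants raised in a greenhouse at 25° C. to 30° C. for foliar application.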

[7] = system: soybean; assay: Test Example 4: effect on crop by soil treatment (symbol d); settings: for d: soybean, effect grade on crop: 320 g/ha
Method in brief: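 Seeds were sown in spots on sterilized diluvial soil in a plastic box and covered with about 1.5 cm of soil. Plants were then grown in a greenhouse at 25° C. to 30° C.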

[8] = system: Apera spica-venti; assay: Test Example 4: herbicidal effect by soil treatment (symbol L); settings: for L: Apera spica-venti, herbicidal effect grade: 320 g/ha
Method in brief: as §1

[9] = system: Veronica persica; assay: Test Example 4: herbicidal effect by soil treatment (symbol R); settings: for R: Veronica persica, herbicidal effect grade: 320 g/ha
Method in brief: as §1

[10] = system: Cyperus difformis; assay: Test Example 3: herbicidal effect by foliage application, Wagner pot (symbol E); settings: application herbicide amount 320 g/ha
Method in brief: as §3

[11] = system: Echinochloa crus-galli var. crus-galli; assay: Test Example 5: herbicidal effect by foliage application, plastic box (symbol H); settings: 320 g/ha, 3 weeks after application
Method in brief: as §2

[12] = system: Stellaria media; assay: Test Example 4: herbicidal effect by soil treatment (symbol P); settings: for P: Stellaria media, herbicidal effect grade: 320 g/ha
Method in brief: as §1

[13] = system: Leptochloa chinensis; assay: Test Example 3: herbicidal effect by foliage application, Wagner pot (symbol D); settings: application herbicide amount 320 g/ha
Method in brief: as §3

[14] = system: Setaria viridis; assay: Test Example 5: herbicidal effect by foliage application, plastic box (symbol G); settings: 320 g/ha, 3 weeks after application
Method in brief: as §2

[15] = system: Abutilon theophrasti; assay: Test Example 5: herbicidal effect by foliage application, plastic box (symbol M); settings: 320 g/ha, 3 weeks after application
Method in brief: as §2

[16] = application herbicide amount 320 g/ha

Compound	N: Amaranthus retroflexus, herbicidal effect grade [1]	L: Apera spica-venti, herbicidal effect (criteria 0-5) [2]	J: Alopecurus myosuroides, herbicidal effect grade [3]	Effect grade on crop, a: transplanted rice plant [4]	herbicidal effect on H (Echinochloa crus-galli var. crus-galli), grade 0-5 [5]	d: soybean, effect on crop (criteria 0-5) [6]	d: soybean, effect grade on crop [7]	L: Apera spica-venti, herbicidal effect grade [8]	R: Veronica persica, herbicidal effect grade [9]	herbicidal effect on E, grade 0-5 [10]	H: Echinochloa crus-galli var. crus-galli, herbicidal effect (criteria 0-5) [11]	P: Stellaria media, herbicidal effect grade [12]	herbicidal effect on D (Leptochloa chinensis), grade 0-5 [13]	G: Setaria viridis, herbicidal effect (criteria 0-5) [14]	M: Abutilon theophrasti, herbicidal effect (criteria 0-5) [15]	further results
CON=C(C)CC1C(O)=C(c2c(C)cc(C)cc2C)C(=O)C1C (mixture of isomers) [12-002]																Herbicidal effect grade, N: Amaranthus retroflexus [1, 16]: 0 (Herbicidal ratio of 5% or lower (almost no effect)); L: Apera spica-venti, herbicidal effect grade [2]: 5 (Herbicidal ratio of 90% or more (almost completely withered)); Herbicidal effect grade, J: Alopecurus myosuroides [3, 16]: 4 (Herbicidal ratio of 70% or higher and lower than 90%); a (transplanted rice plant) effect on crop grade [4]: 3 (Herbicidal ratio of 40% or higher and lower than 70%); H (Echinochloa crus-galli var. crus-galli) herbicidal effect grade ([5]; Table 24): 5 (Herbicidal ratio of 90% or more (almost completely withered)); d: soybean, effect on crop grade [6]: 1 (Herbicidal ratio of 5% or higher and lower than 20%); Effect on crop grade, d: soybean [7, 16]: 0 (Herbicidal ratio of 5% or lower (almost no effect)); Herbicidal effect grade, L: Apera spica-venti [8, 16]: 3 (Herbicidal ratio of 40% or higher and lower than 70%); Herbicidal effect grade, R: Veronica persica [9, 16]: 0 (Herbicidal ratio of 5% or lower (almost no effect)); E herbicidal effect grade ([10]; Table 24): 5 (Herbicidal ratio of 90% or more (almost completely withered)); H: Echinochloa crus-galli var. crus-galli, herbicidal effect grade [11]: 5 (Herbicidal ratio of 90% or more (almost completely withered)); Herbicidal effect grade, P: Stellaria media [12, 16]: 0 (Herbicidal ratio of 5% or lower (almost no effect)); D (Leptochloa chinensis) herbicidal effect grade ([13]; Table 24): 5 (Herbicidal ratio of 90% or more (almost completely withered)); G: Setaria viridis, herbicidal effect grade [14]: 5 (Herbicidal ratio of 90% or more (almost completely withered)); M: Abutilon theophrasti, herbicidal effect grade [15]: 1 (Herbicidal ratio of 5% or higher and lower than 20%)
COc1ccc(CON=C(C)CC2CC(O)=C(c3c(C)cc(C)cc3C)C2=O)cc1 (stereo not drawn) [1-112]	0 (Herbicidal ratio of 5% or lower (almost no effect))	5 (Herbicidal ratio of 90% or more (almost completely withered))	5 (Herbicidal ratio of 90% or more (almost completely withered))	5 (Herbicidal ratio of 90% or more (almost completely withered))	5 (Herbicidal ratio of 90% or more (almost completely withered))	0 (Herbicidal ratio of 5% or lower (almost no effect))	0 (Herbicidal ratio of 5% or lower (almost no effect))	5 (Herbicidal ratio of 90% or more (almost completely withered))	0 (Herbicidal ratio of 5% or lower (almost no effect))	5 (Herbicidal ratio of 90% or more (almost completely withered))	5 (Herbicidal ratio of 90% or more (almost completely withered))	0 (Herbicidal ratio of 5% or lower (almost no effect))	5 (Herbicidal ratio of 90% or more (almost completely withered))	4 (Herbicidal ratio of 70% or higher and lower than 90%)	1 (Herbicidal ratio of 5% or higher and lower than 20%)	
CON=C(C)CON=C(C)CC1CC(O)=C(c2c(C)cc(C)cc2C)C1=O (stereo not drawn) [1-105]	4 (Herbicidal ratio of 70% or higher and lower than 90%)	5 (Herbicidal ratio of 90% or more (almost completely withered))	5 (Herbicidal ratio of 90% or more (almost completely withered))	5 (Herbicidal ratio of 90% or more (almost completely withered))	5 (Herbicidal ratio of 90% or more (almost completely withered))	1 (Herbicidal ratio of 5% or higher and lower than 20%)	0 (Herbicidal ratio of 5% or lower (almost no effect))	5 (Herbicidal ratio of 90% or more (almost completely withered))	0 (Herbicidal ratio of 5% or lower (almost no effect))	5 (Herbicidal ratio of 90% or more (almost completely withered))	5 (Herbicidal ratio of 90% or more (almost completely withered))	0 (Herbicidal ratio of 5% or lower (almost no effect))	5 (Herbicidal ratio of 90% or more (almost completely withered))	5 (Herbicidal ratio of 90% or more (almost completely withered))	1 (Herbicidal ratio of 5% or higher and lower than 20%)	
